According to US20250002526A1, “PHARMACEUTICAL COMPOSITION HAVING ANTI-CANCER IMMUNOSTIMULATING EFFECT AND/OR IMMUNE CHECKPOINT INHIBITION POTENTIATING EFFECT” (KYUSHU UNIVERSITY, NATIONAL UNIVERSITY CORPORATION, priority 2021, published 2025):
“Also recorded” adds a separate entry of the source. Read-outs that look alike come from different tables or passages of the source.

Tests used:
[1] = tested on: E0771-SULT-OVA cells; assay: In vivo tumor growth of E0771-SULT-OVA cells with OTII T cell transfer; design: species or system mouse; settings: activated OTII T cells i.v. day 9, cholenoic acid oral days 12, 13 and 14
Method: (§1) In T cell transfer experiment, activated OTII CD4^+ T cells (2×10^6) and OTI CD8^+ T cells (5×10^5) were intravenously injected into tumor-bearing mice (see experimental results (4)).
(§2) Cholenoic acid was suspended in 0.5% (w/v) methylcellulose 400 solution (FUJIFILM Wako Pure Chemical Corporation) at a proportion of 50 mg/ml, and a 200-μl portion (10 mg) of the suspension was orally administered to mice (see experimental results (6)). To examine the effect on the tumor infiltration of OTII cells or OTI T cells, 5 mg of cholenoic acid was orally administered three times at intervals of 6 hours in 2 days before the assay.
(§3) CD4^+ T cells or CD8^+ T cells were magnetically selected from the spleen and peripheral lymph nodes of OTII and OTI TCR transgenic mice with Dynabeads mouse CD4 (Invitrogen), and then treated with DETACHaBEAD™ mouse CD4 (Invitrogen) or separated with a CD8a^+ T Cell Isolation Kit (Miltenyi Biotec). […]
(§4) The growth of tumors was monitored by measuring the vertical diameters of each tumor with a caliper twice a week and calculating the tumor volumes from the following expression.

[2] = tested on: E.G7-OVA-SULT cells; assay: In vivo tumor growth of E.G7-OVA-SULT cells with OTI T cell transfer; design: species or system mouse; settings: activated OTI T cells i.v. day 10, cholenoic acid oral days 13, 14 and 15
Method: as §1, §2, §3, §4

[3] = tested on: SULT2B1b-mediated CS production in E0771-SULT cells; assay: CS production inhibitory effect in E0771-SULT cells (LC/MS/MS quantification of CS); format: cell-based, mouse; settings: Mus musculus; for activity at 10 µM: relative to control (100%)
Procedure, shortened: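 Mouse E0771 breast cancer cells expressing SULT2B1b, seeded at 5×10^5 cells/well and cultured 24 h with or without test compound. CS extracted with deuterated internal standards and quantified by LC/MS/MS (ESI, MRM) against calibration curves. Values are % of CS production in untreated cells.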

C[C@H](CCC(=O)O)[C@H]1CC[C@H]2[C@@H]3CC=C4C[C@@H](O)CC[C@]4(C)[C@H]3CC[C@]12C [Compound 1, (R)-4-((3S,8S,9S,10R,13R,14S,17R)-3-hydroxy-10,13-dimethyl-2,3,4,7,8,9,10,11,12,13,14,15,16,17-tetradecahydro-1H-cyclopenta[a]phenanthren-17-yl)pentanoic acid]
growth of E0771-SULT-OVA cells / anti-tumor immunity of OTII T cells [1]: recovery of the effect of OTII cell or OTI T cell transplantation; also recorded: the growth of E0771-SULT-OVA cells was suppressed | growth of E.G7-OVA-SULT cells / anti-tumor immunity of OTI T cells [2]: recovery of the effect of OTII cell or OTI T cell transplantation; also recorded: the growth of E.G7-OVA-SULT cells was suppressed | activity at 10 µM ([3]; 24 h, read-out: CS production % activity at 10 μM, E0771-SULT cells, 24 hours, test compound 10 μM (Table 1)): 35.8% | activity at 10 µM ([3]; 24 h, read-out: CS production % activity at 10 μM, E0771-SULT cells, 24 hours, third concentration column of Table 1, head again printed 10 μM): 47.1% | activity at 20 µM ([3]; 24 h, read-out: CS production % activity at 20 μM, E0771-SULT cells, 24 hours, test compound 20 μM, relative to control without compound (100%)): 30.8% | IC50 ([3]; read-out: IC50 value (CS production)): 5.8 µM
